Laboratory results from patent US20230263825A1, “ANTI-CANCER ACTIVITY OF PERBORATE SALTS” (priority 2020, published 2023).

Assay: Toxicology in rats, oral, histopathology
Type: in vivo
Conditions: rat, in vivo, po
Excerpt: After 32 days, the rats were sacrificed and their organs were examined under a microscope.

O.O.O.O.[Na+].[O-]B1OO1 [sodium perborate tetrahydrate]
HEART Notable or abnormal, % (0.125 mg/kg): 0% | HEART Notable or abnormal, No Exam (0.125 mg/kg): 0/10 | HEART Within normal limits, % (0.125 mg/kg): 100% | HEART Within normal limits, No Exam (0.125 mg/kg): 10/10 | INTESTINE, Large Notable or abnormal, % (0.125 mg/kg): 0% | INTESTINE, Large Notable or abnormal, No Exam (0.125 mg/kg): 0/10 | INTESTINE, Large Within normal limits, % (0.125 mg/kg): 100% | INTESTINE, Large Within normal limits, No Exam (0.125 mg/kg): 10/10 | INTESTINE, Small Notable or abnormal, % (0.125 mg/kg): 0% | INTESTINE, Small Notable or abnormal, No Exam (0.125 mg/kg): 0/10 | INTESTINE, Small Within normal limits, % (0.125 mg/kg): 100% | INTESTINE, Small Within normal limits, No Exam (0.125 mg/kg): 10/10 | KIDNEY Edema, % (0.125 mg/kg): 0% | KIDNEY Edema, No Exam (0.125 mg/kg): 0/10 | KIDNEY Notable or abnormal, % (0.125 mg/kg): 0% | KIDNEY Notable or abnormal, No Exam (0.125 mg/kg): 0/10 | KIDNEY Within normal limits, % (0.125 mg/kg): 100% | KIDNEY Within normal limits, No Exam (0.125 mg/kg): 10/10 | LIVER Fattening, % (0.125 mg/kg): 0% | LIVER Fattening, No Exam (0.125 mg/kg): 0/10 | LIVER Infiltration, % (0.125 mg/kg): 0% | LIVER Infiltration, No Exam (0.125 mg/kg): 0/10 | LIVER Notable or abnormal, % (0.125 mg/kg): 0% | LIVER Notable or abnormal, No Exam (0.125 mg/kg): 0/10 | LIVER Within normal limits, % (0.125 mg/kg): 100% | LIVER Within normal limits, No Exam (0.125 mg/kg): 10/10 | LUNG Lymphocytic infiltration, % (0.125 mg/kg): 0% | LUNG Lymphocytic infiltration, No Exam (0.125 mg/kg): 0/10 | LUNG Notable or abnormal, % (0.125 mg/kg): 0% | LUNG Notable or abnormal, No Exam (0.125 mg/kg): 0/10 | LUNG Pulmonary edema, % (0.125 mg/kg): 0% | LUNG Pulmonary edema, No Exam (0.125 mg/kg): 0/10 | LUNG Within normal limits, % (0.125 mg/kg): 100% | LUNG Within normal limits, No Exam (0.125 mg/kg): 10/10 | PANCREAS Notable or abnormal, % (0.125 mg/kg): 0% | PANCREAS Notable or abnormal, No Exam (0.125 mg/kg): 0/10 | PANCREAS Within normal limits, % (0.125 mg/kg): 100% | PANCREAS Within normal limits, No Exam (0.125 mg/kg): 10/10 | SPLEEN Notable or abnormal, % (0.125 mg/kg): 0% | SPLEEN Notable or abnormal, No Exam (0.125 mg/kg): 0/10 | SPLEEN Within normal limits, % (0.125 mg/kg): 100% | SPLEEN Within normal limits, No Exam (0.125 mg/kg): 10/10 | STOMACH Notable or abnormal, % (0.125 mg/kg): 0% | STOMACH Notable or abnormal, No Exam (0.125 mg/kg): 0/10 | STOMACH Within normal limits, % (0.125 mg/kg): 100% | STOMACH Within normal limits, No Exam (0.125 mg/kg): 10/10 | HEART Notable or abnormal, % (0.25 mg/kg): 0% | HEART Notable or abnormal, No Exam (0.25 mg/kg): 0/10 | HEART Within normal limits, % (0.25 mg/kg): 100% | HEART Within normal limits, No Exam (0.25 mg/kg): 10/10 | INTESTINE, Large Notable or abnormal, % (0.25 mg/kg): 0% | INTESTINE, Large Notable or abnormal, No Exam (0.25 mg/kg): 0/10 | INTESTINE, Large Within normal limits, % (0.25 mg/kg): 100% | INTESTINE, Large Within normal limits, No Exam (0.25 mg/kg): 10/10 | INTESTINE, Small Notable or abnormal, % (0.25 mg/kg): 0% | INTESTINE, Small Notable or abnormal, No Exam (0.25 mg/kg): 0/10 | INTESTINE, Small Within normal limits, % (0.25 mg/kg): 100% | INTESTINE, Small Within normal limits, No Exam (0.25 mg/kg): 10/10 | KIDNEY Edema, % (0.25 mg/kg): 0% | KIDNEY Edema, No Exam (0.25 mg/kg): 0/10 | KIDNEY Notable or abnormal, % (0.25 mg/kg): 0% | KIDNEY Notable or abnormal, No Exam (0.25 mg/kg): 0/10 | KIDNEY Within normal limits, % (0.25 mg/kg): 100% | KIDNEY Within normal limits, No Exam (0.25 mg/kg): 10/10 | LIVER Fattening, % (0.25 mg/kg): 0% | LIVER Fattening, No Exam (0.25 mg/kg): 0/10 | LIVER Infiltration, % (0.25 mg/kg): 0% | LIVER Infiltration, No Exam (0.25 mg/kg): 0/10 | LIVER Notable or abnormal, % (0.25 mg/kg): 0% | LIVER Notable or abnormal, No Exam (0.25 mg/kg): 0/10 | LIVER Within normal limits, % (0.25 mg/kg): 100% | LIVER Within normal limits, No Exam (0.25 mg/kg): 10/10 | LUNG Lymphocytic infiltration, % (0.25 mg/kg): 0% | LUNG Lymphocytic infiltration, No Exam (0.25 mg/kg): 0/10 | LUNG Notable or abnormal, % (0.25 mg/kg): 0% | LUNG Notable or abnormal, No Exam (0.25 mg/kg): 0/10 | LUNG Pulmonary edema, % (0.25 mg/kg): 0% | LUNG Pulmonary edema, No Exam (0.25 mg/kg): 0/10 | LUNG Within normal limits, % (0.25 mg/kg): 100% | LUNG Within normal limits, No Exam (0.25 mg/kg): 10/10 | PANCREAS Notable or abnormal, % (0.25 mg/kg): 0% | PANCREAS Notable or abnormal, No Exam (0.25 mg/kg): 0/10 | PANCREAS Within normal limits, % (0.25 mg/kg): 100% | PANCREAS Within normal limits, No Exam (0.25 mg/kg): 10/10 | SPLEEN Notable or abnormal, % (0.25 mg/kg): 0% | SPLEEN Notable or abnormal, No Exam (0.25 mg/kg): 0/10 | SPLEEN Within normal limits, % (0.25 mg/kg): 100% | SPLEEN Within normal limits, No Exam (0.25 mg/kg): 10/10 | STOMACH Notable or abnormal, % (0.25 mg/kg): 0% | STOMACH Notable or abnormal, No Exam (0.25 mg/kg): 0/10 | STOMACH Within normal limits, % (0.25 mg/kg): 100% | STOMACH Within normal limits, No Exam (0.25 mg/kg): 10/10 | HEART Notable or abnormal, % (0.5 mg/kg): 0% | HEART Notable or abnormal, No Exam (0.5 mg/kg): 0/10 | HEART Within normal limits, % (0.5 mg/kg): 100% | HEART Within normal limits, No Exam (0.5 mg/kg): 10/10 | INTESTINE, Large Notable or abnormal, % (0.5 mg/kg): 0% | INTESTINE, Large Notable or abnormal, No Exam (0.5 mg/kg): 0/10 | INTESTINE, Large Within normal limits, % (0.5 mg/kg): 100% | INTESTINE, Large Within normal limits, No Exam (0.5 mg/kg): 10/10 | INTESTINE, Small Notable or abnormal, % (0.5 mg/kg): 0% | INTESTINE, Small Notable or abnormal, No Exam (0.5 mg/kg): 0/10 | INTESTINE, Small Within normal limits, % (0.5 mg/kg): 100% | INTESTINE, Small Within normal limits, No Exam (0.5 mg/kg): 10/10 | KIDNEY Edema, % (0.5 mg/kg): 0% | KIDNEY Edema, No Exam (0.5 mg/kg): 0/10 | KIDNEY Notable or abnormal, % (0.5 mg/kg): 0% | KIDNEY Notable or abnormal, No Exam (0.5 mg/kg): 0/10 | KIDNEY Within normal limits, % (0.5 mg/kg): 100% | KIDNEY Within normal limits, No Exam (0.5 mg/kg): 10/10 | LIVER Fattening, % (0.5 mg/kg): 0% | LIVER Fattening, No Exam (0.5 mg/kg): 0/10 | LIVER Infiltration, % (0.5 mg/kg): 0% | LIVER Infiltration, No Exam (0.5 mg/kg): 0/10 | LIVER Notable or abnormal, % (0.5 mg/kg): 0% | LIVER Notable or abnormal, No Exam (0.5 mg/kg): 0/10 | LIVER Within normal limits, % (0.5 mg/kg): 100% | LIVER Within normal limits, No Exam (0.5 mg/kg): 10/10 | LUNG Lymphocytic infiltration, % (0.5 mg/kg): 0% | LUNG Lymphocytic infiltration, No Exam (0.5 mg/kg): 0/10 | LUNG Notable or abnormal, % (0.5 mg/kg): 0% | LUNG Notable or abnormal, No Exam (0.5 mg/kg): 0/10 | LUNG Pulmonary edema, % (0.5 mg/kg): 0% | LUNG Pulmonary edema, No Exam (0.5 mg/kg): 0/10 | LUNG Within normal limits, % (0.5 mg/kg): 100% | LUNG Within normal limits, No Exam (0.5 mg/kg): 10/10 | PANCREAS Notable or abnormal, % (0.5 mg/kg): 0% | PANCREAS Notable or abnormal, No Exam (0.5 mg/kg): 0/10 | PANCREAS Within normal limits, % (0.5 mg/kg): 100% | PANCREAS Within normal limits, No Exam (0.5 mg/kg): 10/10 | SPLEEN Notable or abnormal, % (0.5 mg/kg): 0% | SPLEEN Notable or abnormal, No Exam (0.5 mg/kg): 0/10 | SPLEEN Within normal limits, % (0.5 mg/kg): 100% | SPLEEN Within normal limits, No Exam (0.5 mg/kg): 10/10 | STOMACH Notable or abnormal, % (0.5 mg/kg): 0% | STOMACH Notable or abnormal, No Exam (0.5 mg/kg): 0/10 | STOMACH Within normal limits, % (0.5 mg/kg): 100% | STOMACH Within normal limits, No Exam (0.5 mg/kg): 10/10 | HEART Notable or abnormal, % (1 mg/kg): 0% | HEART Notable or abnormal, No Exam (1 mg/kg): 0/10 | HEART Within normal limits, % (1 mg/kg): 100% | HEART Within normal limits, No Exam (1 mg/kg): 10/10 | INTESTINE, Large Notable or abnormal, % (1 mg/kg): 0% | INTESTINE, Large Notable or abnormal, No Exam (1 mg/kg): 0/10 | INTESTINE, Large Within normal limits, % (1 mg/kg): 100% | INTESTINE, Large Within normal limits, No Exam (1 mg/kg): 10/10 | INTESTINE, Small Notable or abnormal, % (1 mg/kg): 0% | INTESTINE, Small Notable or abnormal, No Exam (1 mg/kg): 0/10 | INTESTINE, Small Within normal limits, % (1 mg/kg): 100% | INTESTINE, Small Within normal limits, No Exam (1 mg/kg): 10/10 | KIDNEY Edema, % (1 mg/kg): 0% | KIDNEY Edema, No Exam (1 mg/kg): 0/10 | KIDNEY Notable or abnormal, % (1 mg/kg): 0% | KIDNEY Notable or abnormal, No Exam (1 mg/kg): 0/10 | KIDNEY Within normal limits, % (1 mg/kg): 100% | KIDNEY Within normal limits, No Exam (1 mg/kg): 10/10 | LIVER Fattening, % (1 mg/kg): 0% | LIVER Fattening, No Exam (1 mg/kg): 0/10 | LIVER Infiltration, % (1 mg/kg): 0% | LIVER Infiltration, No Exam (1 mg/kg): 0/10 | LIVER Notable or abnormal, % (1 mg/kg): 0% | LIVER Notable or abnormal, No Exam (1 mg/kg): 0/10
